Legend:
[1] = solubility in 100 g of water, Test Example 2; type: physicochemical
Procedure: About each of crystal A yielded according to the same process in Example 1, and crystal B yielded according to the same process in Comparative Example 1, the solubility thereof in 100 g of water was measured.

[2] = differential scanning calorimetry (DSC), Test Example 1; type: physicochemical; conditions: for Endothermic peak / Exothermic peak: DSC, 25 to 500° C., 10° C./minute, air-tightly closed SUS container
Procedure: About the DSC measurement, for example, a differential scanning calorimeter of an EXTER 6000 type, manufactured by SII Nano Technology Inc., is used to make it possible to make the measurement under the following conditions: […]
measuring temperature range: 25 to 500° C., temperature-raising rate: 10° C./minute, container: air-tightly closed SUS, sample amount: about 0.4 to 0.7 mg, reference: α-alumina having a weight of about 0.6 mg, and atmospheric gas flow rate: dried nitrogen, about 70 mL/minute.
About each of crystal A yielded according to the same process in Example 1, and crystal B yielded according to the same process in Comparative Example 1, a device manufactured by SII Nano Technology Inc., EXTER 6000, was used to measure the DSC thereof under differential scanning calorie analysis conditions described below.
(Differential Scanning Calorie Analysis Conditions)

Structure (SMILES) | solubility in 100 g of water ([1]; 25° C.) | solubility in 100 g of water ([1]; 40° C.) | solubility in 100 g of water ([1]; 75° C.) | Endothermic peak [2] | Exothermic peak [2] | thermal stability ([2]; concluded from the DSC endothermic and exothermic peaks, compared with crystal B) | solubility in 100 g of water ([1]; 55° C.)
NC[C@H](CC(=O)O)c1ccc(Cl)cc1 [Crystal A, (R)-4-amino-3-(4-chlorophenyl)butanoic acid] | 0.88 g | 1.16 g | 2.20 g | 203 °C | 386 °C | far better in thermal stability than crystal B | –
NC[C@H](CC(=O)O)c1ccc(Cl)cc1 [Crystal B, (R)-4-amino-3-(4-chlorophenyl)butanoic acid, reference compound] | 1.98 g | – | 2.86 g | 187 °C | 349 °C | – | 2.59 g
